According to US20160002174A1, “CXCR4 Antagonists for the Treatment of Medical Disorders” (Emory University, priority 2005, published 2016):
Bridge positions count the residues as written; N and C are the ends. Square brackets hold non-standard residues; d marks the D form. Peptide text beside a SMILES is read from it. 2Nal = N[C@@H](Cc1ccc2ccccc2c1)C(=O)O; Cit = NC(=O)NCCC[C@H](N)C(=O)O

molecular target: CXCR4 (Homo sapiens, UniProt P61073); test: Competition assays: test compounds binding to CXCR4 compared to SDF-1 (Table 2); conditions: not given
Sequence (P61073 whole entry): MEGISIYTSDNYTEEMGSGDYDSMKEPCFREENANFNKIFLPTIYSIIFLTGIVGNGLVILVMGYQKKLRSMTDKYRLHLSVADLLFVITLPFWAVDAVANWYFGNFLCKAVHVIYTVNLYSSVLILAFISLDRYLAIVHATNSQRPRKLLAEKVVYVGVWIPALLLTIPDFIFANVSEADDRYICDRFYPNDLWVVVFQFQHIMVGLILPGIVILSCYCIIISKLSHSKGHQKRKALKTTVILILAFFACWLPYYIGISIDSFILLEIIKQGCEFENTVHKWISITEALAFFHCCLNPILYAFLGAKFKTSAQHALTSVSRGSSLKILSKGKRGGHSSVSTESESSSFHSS

Row | SMILES | IC50
1 | O=[N+]([O-])c1ccc(NCc2ccc(CNc3ccc([N+](=O)[O-])cc3)cc2)cc1 [MSX-178] | > 1000 nM
2 | O=[N+]([O-])c1cccc(NCc2ccc(CNc3cccc([N+](=O)[O-])c3)cc2)c1 [MSX-203] | 1 nM

same assay, conditions: competition with SDF-1 for binding to CXCR4; read-out: IC50 (nM) vs SDF-1

Row | IC50 | SMILES
3 | > 10 nM | COc1ccc(NCc2ccc(CNc3ccc(OC)cc3)cc2)cc1 [MSX-125]
4 | > 1000 nM | Cc1cc(CN)c(C)cc1CN [MSX-126]
5 | > 1000 nM | Oc1cc(CN2CCOCC2)c(O)cc1CN1CCOCC1 [MSX-127]
6 | > 1000 nM | c1ccc(-c2nc(-c3ccc(-c4nc(-c5ccccc5)c(-c5ccccc5)[nH]4)cc3)[nH]c2-c2ccccc2)cc1 [MSX-130]
7 | > 1000 nM | c1cc(CNC2=NCCN2)ccc1CNC1=NCCN1 [MSX-133]
8 | > 1000 nM | COc1cccc(NC(=O)c2ccc(C(=O)Nc3cccc(OC)c3)cc2)c1 [MSX-137]
9 | > 1000 nM | FC(F)(F)c1cccc(NCc2ccc(CNc3cccc(C(F)(F)F)c3)cc2)c1 [MSX-138]
10 | > 1000 nM | CN(C)Cc1ccc(CN(C)C)cc1 [MSX-141]
11 | > 1000 nM | Fc1ccc(NCc2ccc(CNc3ccc(F)cc3)cc2)cc1 [MSX-142]
12 | > 1000 nM | CN(C)CCNCc1ccc(CNCCN(C)C)cc1 [MSX-156s]
13 | > 1000 nM | c1ccc(NCCNCc2ccc(CNCCNc3ccccc3)cc2)cc1 [MSX-158]
14 | > 1000 nM | c1cc(CNCc2ccc(CNCc3ccncc3)cc2)ccn1 [MSX-159s]
15 | > 1000 nM | c1cncc(CNCc2ccc(CNCc3cccnc3)cc2)c1 [MSX-160]
16 | > 1000 nM | c1ccc(CNCc2ccc(CNCc3ccccn3)cc2)nc1 [MSX-161s]
17 | > 100 nM | CN(Cc1ccc(CN(C)c2ccccc2)cc1)c1ccccc1 [MSX-164]
18 | > 1000 nM | c1ccc(NCc2cc(CNc3ccccc3)cc(CNc3ccccc3)c2)cc1 [MSX-166]
19 | > 100 nM | O=C(Nc1ccccc1)c1cc(CNc2ccccc2)cc(CNc2ccccc2)c1 [MSX-167]
20 | > 100 nM | c1ccc(NCCc2ccc(CCNc3ccccc3)cc2)cc1 [MSX-170]
21 | > 1000 nM | c1ccc(NC[C@H]2CC[C@@H](CNc3ccccc3)CC2)cc1 [MSX-171]

Row | IC50 | SMILES
22 | > 100 nM | c1ccc(NCc2c3ccccc3c(CNc3ccccc3)c3ccccc23)cc1 [MSX-174]
23 | > 100 nM | c1ccc(NCc2ccccc2CNc2ccccc2)cc1 [MSX-176]
24 | > 1000 nM | N#Cc1ccc(NCc2ccc(CNc3ccc(C#N)cc3)cc2)cc1 [MSX-177]
25 | > 1000 nM | Oc1ccc(NCc2ccc(CNc3ccc(O)cc3)cc2)cc1 [MSX-179]
26 | > 100 nM | Fc1cccc(NCc2ccc(CNc3cccc(F)c3)cc2)c1 [MSX-184]
27 | < 100 nM | Fc1ccc(NCc2ccc(CNc3ccc(F)cn3)cc2)nc1 [MSX-185]
28 | > 1000 nM | OCc1ccc(CNc2ccc(F)cn2)cc1 [MSX-186]
29 | > 1000 nM | [O-][n+]1cccnc1NCc1ccc(CNc2nccc[n+]2[O-])cc1 [MSX-189]
30 | 1 nM | Fc1cnc(NCc2ccc(CNc3ncc(F)c(Cl)n3)cc2)nc1Cl [MSX-192]
31 | 1 nM | Fc1nccc(NCc2ccc(CNc3ccnc(F)n3)cc2)n1 [MSX-193]
32 | 1 nM | Fc1ccc(NCc2ccc(CNc3ncccn3)cc2)nc1 [MSX-197]
33 | < 100 nM | c1ccc(NCc2ccc(CNc3ncccn3)cc2)nc1 [MSX-198]
34 | 1 nM | COc1nc(NCc2ccc(CNc3ncc(F)c(OC)n3)cc2)ncc1F [MSX-201]
35 | 1 nM | O=[N+]([O-])c1ccccc1NCc1ccc(CO)cc1 [MSX-202]
36 | 1 nM | FCc1ccc(CNc2ncccn2)cc1 [MSX-207]
37 | > 1000 nM | c1ccc(OCc2ccc(COc3ccccn3)cc2)nc1 [MSX-213]
38 | 1 nM | Clc1cccc(NCc2ccc(CNc3ncccn3)cc2)n1 [MSX-221]
39 | < 1 nM | N=C(N)NCCC[C@H](NC(=O)[C@@H]1CSSC[C@H](NC(=O)[C@H](Cc2ccc3ccccc3c2)NC(=O)[C@H](CCCNC(=N)N)NC(=O)[C@@H](N)CCCNC(=N)N)C(=O)N[C@@H](Cc2ccc(O)cc2)C(=O)N[C@@H](CCCNC(N)=O)C(=O)N[C@@H](CCCCN)C(=O)N[C@H](CCCCN)C(=O)N2CCC[C@H]2C(=O)N[C@@H](Cc2ccc(O)cc2)C(=O)N[C@@H](CCCNC(=N)N)C(=O)N[C@@H](CCCNC(N)=O)C(=O)N1)C(N)=O [TN-14003, reference compound] (H-RR[2Nal]CY[Cit]K[dK]PYR[Cit]CR-NH2; disulfide 4-13 (inferred); N-terminus assumed)

system: not listed separately; test: Half life of the compounds in mice; type: in vivo; conditions: not given
Description: A pharmacokinetic study of a novel anti-HIF-1α small molecule was performed. A stably integrated hypoxia-reporter system of glioma cells transfected with the hypoxia-reporting plasmid (described above) was utilized. A natural product-like small molecule library of 10,000 compounds was screened and the “best hit” was identified. HPLC methodology was developed for quantitatively detecting KCN-1 in plasma and other biological samples. For the pharmacokinetic study, KCN-1 (100 mg/kg) was dissolved in DMSO and administered intravenously to mice. Plasma samples were collected at given time Points (0.25, 0.5, 1, 2, 4 and 8 h) and KCN-1 levels were quantified by HPLC. The HPLC system consisted of a Varian Prostar gradient pump, a Prostar autosampler and a Prostar photo diode array detector. The column was a Luna 5μ C18 column (4.6 mm×250 mm, Phenomenex). The retention time of KCN1 and the internal standard were 8.7 and 17.7 min, respectively (FIG. 13). The in vivo stability of WZZL811S and WZ40 were measured after systemic administration of compounds over two hours (FIG. 17).
The half life of the compounds in mice where determined are also shown.

Row | SMILES | t½ (min) in mice
40 | O=[N+]([O-])c1cccc(NCc2ccc(CNc3cccc([N+](=O)[O-])c3)cc2)c1 [MSX-203] | infinite

same assay, conditions: mouse, in vivo, read-out: t½ (min) in mice

Row | half-life | SMILES
41 | < 5 min | Cc1c(C)c(CNc2ccccc2)c(C)c(C)c1CNc1ccccc1 [MSX-172]
42 | < 5 min | Clc1nc(Cl)nc(NCc2ccc(CNc3nc(Cl)nc(Cl)n3)cc2)n1 [MSX-190]
43 | 30 min | Fc1nccc(NCc2ccc(CNc3ccnc(F)n3)cc2)n1 [MSX-193]
44 | 16.5 min | Fc1ccc(NCc2ccc(CNc3ncccn3)cc2)nc1 [MSX-197]
45 | < 5 min | O=[N+]([O-])c1ccccc1NCc1ccc(CO)cc1 [MSX-202]
46 | 11 min | FCc1ccc(CNc2ncccn2)cc1 [MSX-207]
47 | 15 min | Fc1cccc(NCc2ccc(CNc3ncccn3)cc2)n1 [MSX-222]

system: SHIV; test: SHIV infection, p27 antigen capture; type: cell-based; conditions: 0.1, 1, 10 or 100 nM drug prior to infection; 2 to 5 days
Description: The effect of the test compounds on HIV infection in model cells was analyzed by p27 antigen capture using SHIV infected cells. Cells were incubated with 0, 0.1, 1, 10 or 100 nM drug prior to infection with SHIV. Viral titer was measured after infection by analyzing levels of p27 antigen. […] The inhibition was measurable at 2 days, and continued to 5 day incubations.

Row | SMILES | inhibition of SHIV infection (p27 antigen)
48 | c1cnc(NCc2ccc(CNc3ncccn3)cc2)nc1 [WZ40] | inhibited SHIV infection at all concentrations tested
49 | OCc1ccc(CNc2ncccn2)cc1 [WZ41] | inhibited SHIV infection at all concentrations tested

system: not given; test: not given; conditions: not given

Row | melting point | SMILES
50 | 278 to 281 °C (dec.) | N=C(N)NCc1ccc(CNC(=N)N)cc1 [WZ5S]
51 | 42 to 43 °C | c1ccc(NCCNCc2ccc(CNCCNc3ccccc3)cc2)cc1 [WZ8]
52 | 126 to 127 °C | c1ccc(NCc2ccc(CNc3ccccc3)cc2)cc1 [WZ13]
53 | 318 to 320 °C | O=C(Nc1ccccc1)c1cc(C(=O)Nc2ccccc2)cc(C(=O)Nc2ccccc2)c1 [WZ20]
